Data published in PubChem BioAssay (NCI).
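The compound was tested at five concentrations on cells cultured in 96-well plates, with a 48-hour exposure period. Abbreviation: GI50, concentration required for 50% inhibition of growth. TGI: concentration producing complete growth inhibition.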

What was measured:
Assay in all cases: NCI tumour cell line growth inhibition, 48 h
UO-31 renal = test system: UO-31 renal
SK-OV-3 ovarian = test system: SK-OV-3 ovarian
OVCAR-5 ovarian = test system: OVCAR-5 ovarian
MDA-MB-435 = test system: MDA-MB-435
CAKI-1 renal = test system: CAKI-1 renal
MALME-3M melanoma = test system: MALME-3M melanoma
SW-620 colon = test system: SW-620 colon
SNB-75 CNS = test system: SNB-75 CNS
HCT-116 colon = test system: HCT-116 colon
HCT-15 colon = test system: HCT-15 colon

With `O=c1oc2ccc(-c3ccc(F)cc3F)cc2c(=O)n1-c1ccc(Cl)c(C(F)(F)F)c1` the GI50 (UO-31 renal) was 2.44 µM, the TGI (UO-31 renal) was 8.4 µM and the GI50 (SK-OV-3 ovarian) was 2.01 µM. It also gave a TGI (SK-OV-3 ovarian) of 5.17 µM, a GI50 (OVCAR-5 ovarian) of 4.31 µM and a TGI (OVCAR-5 ovarian) greater than 100 µM. The GI50 (MDA-MB-435) was 3.07 µM, the TGI (MDA-MB-435) was 9.83 µM and the GI50 (CAKI-1 renal) was 1.91 µM. It also gave a TGI (CAKI-1 renal) of 6.35 µM, a GI50 (MALME-3M melanoma) of 2.19 µM and a TGI (MALME-3M melanoma) of 5.73 µM. It also gave a GI50 (SW-620 colon) of 3.16 µM, a TGI (SW-620 colon) of 11.7 µM and a GI50 (SNB-75 CNS) of 1.7 µM. It also gave a TGI (SNB-75 CNS) of 4.2 µM, a GI50 (HCT-116 colon) of 1.75 µM and a TGI (HCT-116 colon) of 3.49 µM. The GI50 (HCT-15 colon) was 2.04 µM and the TGI (HCT-15 colon) was 8.19 µM.
Compound `COc1ccc(C2C=C(c3ccc(Cl)cc3)N=C3SC=C(C)N32)c(Br)c1` (stereo unspecified) has a GI50 (UO-31 renal) of 3.26 µM, a TGI (UO-31 renal) of 15.4 µM and a GI50 (SK-OV-3 ovarian) of 3.57 µM. It also gave a TGI (SK-OV-3 ovarian) of 12.6 µM, a GI50 (OVCAR-5 ovarian) of 3.12 µM and a TGI (OVCAR-5 ovarian) of 11.2 µM. The GI50 (MDA-MB-435) was 3.02 µM, the TGI (MDA-MB-435) was 14.9 µM and the GI50 (CAKI-1 renal) was 2.98 µM. The TGI (CAKI-1 renal) was 12.4 µM, the GI50 (MALME-3M melanoma) was 8.31 µM and the TGI (MALME-3M melanoma) was 22.8 µM. It also gave a GI50 (SW-620 colon) of 2.85 µM, a TGI (SW-620 colon) of 10.3 µM and a GI50 (SNB-75 CNS) of 3.77 µM. For the same compound, the TGI (SNB-75 CNS) was 16.7 µM, the GI50 (HCT-116 colon) was 2.58 µM and the TGI (HCT-116 colon) was 11 µM. For the same compound, the GI50 (HCT-15 colon) was 2.42 µM and the TGI (HCT-15 colon) was 12.2 µM.
In the case of `N#Cc1c(N)nc(NCc2ccccc2)c(C#N)c1-c1ccc(Cl)cc1Cl`, the GI50 (UO-31 renal) is reported as greater than 100 µM, the TGI (UO-31 renal) is reported as greater than 100 µM and the GI50 (SK-OV-3 ovarian) is reported as greater than 100 µM. For the same compound, the TGI (SK-OV-3 ovarian) was greater than 100 µM, the GI50 (OVCAR-5 ovarian) was 96.9 µM and the TGI (OVCAR-5 ovarian) was greater than 100 µM. The GI50 (MDA-MB-435) was greater than 46.8 µM, the TGI (MDA-MB-435) was greater than 100 µM and the GI50 (CAKI-1 renal) was greater than 100 µM. For the same compound, the TGI (CAKI-1 renal) was greater than 100 µM, the GI50 (MALME-3M melanoma) was greater than 63.1 µM and the TGI (MALME-3M melanoma) was greater than 100 µM. The GI50 (SW-620 colon) was 74.4 µM, the TGI (SW-620 colon) was greater than 100 µM and the GI50 (SNB-75 CNS) was 22.9 µM. For the same compound, the TGI (SNB-75 CNS) was 99 µM, the GI50 (HCT-116 colon) was greater than 100 µM and the TGI (HCT-116 colon) was greater than 100 µM. It also gave a GI50 (HCT-15 colon) greater than 100 µM and a TGI (HCT-15 colon) greater than 100 µM.
For `CN(C)c1ccc(C(c2ccc(Cl)cc2)c2ccc(N(C)C)cc2)cc1`, the TGI (UO-31 renal) was greater than 100 µM, the TGI (SK-OV-3 ovarian) was greater than 100 µM and the TGI (OVCAR-5 ovarian) was greater than 100 µM. The TGI (MDA-MB-435) was greater than 100 µM, the TGI (CAKI-1 renal) was greater than 100 µM and the TGI (MALME-3M melanoma) was greater than 100 µM. For the same compound, the TGI (SW-620 colon) was greater than 100 µM, the TGI (SNB-75 CNS) was greater than 100 µM and the TGI (HCT-116 colon) was greater than 100 µM. For the same compound, the TGI (HCT-15 colon) was greater than 100 µM.
With `CC(=O)c1cc(C(=O)c2ccc3c(c2)Sc2ccccc2N3)c2c(C)cccn12` the GI50 (UO-31 renal) was 0.925 µM, the TGI (UO-31 renal) was 98.4 µM and the GI50 (SK-OV-3 ovarian) was 0.266 µM. The TGI (SK-OV-3 ovarian) was 10.5 µM, the GI50 (OVCAR-5 ovarian) was 0.63 µM and the TGI (OVCAR-5 ovarian) was greater than 100 µM. It also gave a GI50 (MDA-MB-435) of 0.0464 µM, a TGI (MDA-MB-435) of 0.275 µM and a GI50 (MALME-3M melanoma) of 13.6 µM. The TGI (MALME-3M melanoma) was greater than 100 µM, the GI50 (SW-620 colon) was 0.265 µM and the TGI (SW-620 colon) was greater than 100 µM. The GI50 (SNB-75 CNS) was 0.178 µM, the TGI (SNB-75 CNS) was 1.04 µM and the GI50 (HCT-116 colon) was 0.27 µM. It also gave a TGI (HCT-116 colon) of 10.5 µM, a GI50 (HCT-15 colon) of 0.294 µM and a TGI (HCT-15 colon) greater than 100 µM.
`Cc1cc(Cl)ccc1Nc1nc(C(F)(F)F)ccc1C(=O)N/N=C/c1ccccc1Cl` showed a GI50 (UO-31 renal) of 1.29 µM, a TGI (UO-31 renal) of 4.15 µM and a GI50 (SK-OV-3 ovarian) of 0.874 µM. The TGI (SK-OV-3 ovarian) was 4.95 µM, the GI50 (OVCAR-5 ovarian) was 1.65 µM and the TGI (OVCAR-5 ovarian) was 11.1 µM. The GI50 (MDA-MB-435) was 2.29 µM, the TGI (MDA-MB-435) was 20.9 µM and the GI50 (CAKI-1 renal) was 2.82 µM. The TGI (CAKI-1 renal) was 7.72 µM, the GI50 (MALME-3M melanoma) was 1.54 µM and the TGI (MALME-3M melanoma) was 6.18 µM. For the same compound, the GI50 (SW-620 colon) was 0.667 µM, the TGI (SW-620 colon) was 6.02 µM and the GI50 (SNB-75 CNS) was 2.29 µM. It also gave a TGI (SNB-75 CNS) greater than 29.3 µM, a GI50 (HCT-116 colon) of 0.439 µM and a TGI (HCT-116 colon) of 3.18 µM. The GI50 (HCT-15 colon) was 0.438 µM and the TGI (HCT-15 colon) was 16.5 µM.
`COc1cc(NCCN=C(N)NC(N)=NC(C)C)c2ncccc2c1` showed a GI50 (UO-31 renal) greater than 100 µM, a TGI (UO-31 renal) greater than 100 µM and a GI50 (SK-OV-3 ovarian) of 48.8 µM. The TGI (SK-OV-3 ovarian) was greater than 100 µM, the GI50 (OVCAR-5 ovarian) was 11.2 µM and the TGI (OVCAR-5 ovarian) was 39.3 µM. For the same compound, the GI50 (MDA-MB-435) was 18.6 µM, the TGI (MDA-MB-435) was 41.9 µM and the GI50 (CAKI-1 renal) was greater than 100 µM. For the same compound, the TGI (CAKI-1 renal) was greater than 100 µM, the GI50 (MALME-3M melanoma) was 1.6 µM and the TGI (MALME-3M melanoma) was 6.71 µM. For the same compound, the GI50 (SW-620 colon) was 15.4 µM, the TGI (SW-620 colon) was greater than 100 µM and the GI50 (SNB-75 CNS) was 2.48 µM. For the same compound, the TGI (SNB-75 CNS) was 13.8 µM, the GI50 (HCT-116 colon) was 3.63 µM and the TGI (HCT-116 colon) was greater than 100 µM. For the same compound, the GI50 (HCT-15 colon) was greater than 86 µM and the TGI (HCT-15 colon) was greater than 100 µM.
In the case of `COc1cccc(/C(C)=N/NC(=O)CSc2nc3ccccc3c(=O)n2CCc2ccc(S(N)(=O)=O)cc2)c1`, the GI50 (UO-31 renal) is reported as 2.11 µM, the TGI (UO-31 renal) is reported as 6.48 µM and the GI50 (SK-OV-3 ovarian) is reported as 2.26 µM. For the same compound, the TGI (SK-OV-3 ovarian) was 4.88 µM, the GI50 (OVCAR-5 ovarian) was 3.36 µM and the TGI (OVCAR-5 ovarian) was 21 µM. For the same compound, the GI50 (MDA-MB-435) was 3.18 µM, the TGI (MDA-MB-435) was 12.6 µM and the GI50 (CAKI-1 renal) was 3.7 µM. It also gave a TGI (CAKI-1 renal) of 15.4 µM, a GI50 (MALME-3M melanoma) of 1.98 µM and a TGI (MALME-3M melanoma) of 4.62 µM. It also gave a GI50 (SW-620 colon) of 2.77 µM, a TGI (SW-620 colon) of 7.5 µM and a GI50 (SNB-75 CNS) of 5.86 µM. The TGI (SNB-75 CNS) was 26.9 µM, the GI50 (HCT-15 colon) was 18.4 µM and the TGI (HCT-15 colon) was greater than 100 µM.
Compound `CC12CCC3c4cc(Br)c(O)c(Br)c4CCC3C1CCC2O` (stereo unspecified) has a TGI (UO-31 renal) of 46.8 µM, a TGI (SK-OV-3 ovarian) of 51.4 µM and a TGI (OVCAR-5 ovarian) greater than 100 µM. The TGI (MDA-MB-435) was 18.7 µM, the TGI (CAKI-1 renal) was 31.5 µM and the TGI (MALME-3M melanoma) was 30.8 µM. The TGI (SW-620 colon) was 33 µM, the TGI (SNB-75 CNS) was 37.5 µM and the TGI (HCT-116 colon) was greater than 100 µM.
For `COc1cc2c(=O)n(CCN(C)C)c3c4cc5c(cc4ccc3c2cc1OC)OCO5`, the GI50 (UO-31 renal) was 0.119 µM, the TGI (UO-31 renal) was 0.48 µM and the GI50 (SK-OV-3 ovarian) was 0.275 µM. The TGI (SK-OV-3 ovarian) was 1.87 µM, the GI50 (OVCAR-5 ovarian) was 0.519 µM and the TGI (OVCAR-5 ovarian) was 3.8 µM. The GI50 (MDA-MB-435) was 0.329 µM, the TGI (MDA-MB-435) was 1.29 µM and the GI50 (MALME-3M melanoma) was 0.241 µM. The TGI (MALME-3M melanoma) was 0.967 µM, the GI50 (SW-620 colon) was 0.239 µM and the TGI (SW-620 colon) was 6.87 µM. It also gave a GI50 (SNB-75 CNS) of 0.23 µM, a TGI (SNB-75 CNS) of 5.05 µM and a GI50 (HCT-116 colon) of 0.195 µM. It also gave a TGI (HCT-116 colon) of 2.01 µM, a GI50 (HCT-15 colon) of 0.391 µM and a TGI (HCT-15 colon) of 1.83 µM.
For `Cc1cc(Nc2cc(N3CCN(C)CC3)nc(Sc3ccc(NC(=O)C4CC4)cc3)n2)n[nH]1`, the GI50 (UO-31 renal) was 3.54 µM, the TGI (UO-31 renal) was greater than 10 µM and the GI50 (SK-OV-3 ovarian) was greater than 10 µM. It also gave a TGI (SK-OV-3 ovarian) greater than 10 µM, a GI50 (MDA-MB-435) of 2.11 µM and a TGI (MDA-MB-435) greater than 10 µM. The GI50 (CAKI-1 renal) was 4.27 µM, the TGI (CAKI-1 renal) was greater than 10 µM and the GI50 (MALME-3M melanoma) was 4.85 µM. For the same compound, the TGI (MALME-3M melanoma) was greater than 10 µM, the GI50 (SW-620 colon) was 1.08 µM and the TGI (SW-620 colon) was greater than 10 µM. For the same compound, the GI50 (SNB-75 CNS) was 2.71 µM, the TGI (SNB-75 CNS) was greater than 10 µM and the GI50 (HCT-116 colon) was 0.273 µM. The TGI (HCT-116 colon) was greater than 10 µM, the GI50 (HCT-15 colon) was 5.38 µM and the TGI (HCT-15 colon) was greater than 10 µM.
